Laboratory results from patent US20220175750A1, “SUSTAINED RELEASE FORMULATION FOR LOCAL DELIVERY OF CDK9 INHIBITORS” (The Regents of the University of California, priority 2019, published 2022).

Legend:
[1] = Microparticle drug loading / loading efficiency; type: physicochemical; conditions: for incorporation of inhibitor (adequacy): PLGA
Protocol: (§1) FIG. 6: Flavopiridol was encapsulated at 1% w/v ratio in PLGA microparticles (MPs) synthesized using Purasorb® PDLG 5004A (Corbion) in methylene chloride at 20% w/v ratio and vortexed vigorously for 30 seconds after addition of polyvinyl alcohol (10%) at 2:1 ratio. The solution was then added dropwise to 1% PVA and mixed overnight, with 3× washes next day and lyophilized overnight. […] FIG. 6B: Linear standard curve for different concentrations of flavopiridol in solution of dissolved PLGA in DMSO acquired with Nanodrop 2000 Spectrophotometer at 274 nm. […] FIG. 6D: SEM image of flavopiridol MPs using a Phillips XL30 Microscope.
Preparation of poly(lactic-co-glycolic) acid (PLGA) or polycaprolactone (PCL) particles with CDK9 inhibitors was performed using a single emulsion-solvent evaporation technique. Briefly, 500 mg of PLGA or PCL was dissolved in 2.5 mL of 2% v/v dimethylsulfoxide in methylene chloride (for PLGA) or chloroform (for PCL). […] The solutions were vortexed at full speed (30 seconds for PLGA or 45 seconds for PCL) to form microparticles. The microparticle suspensions were transferred to 150 mL of 1% poly(vinyl alcohol), and stirred for 24 hours. The particles were pelleted, washed with water, lyophilized and stored at −20° C. for further use. Size distribution was measured using an AccuSizer model 770 optical particle sizer (Particle Sizing Systems).
For example, SNS-032 has a 30.7% loading efficiency, such that of the 2 g of starting SNS-032, about 0.61 g was encapsulated in the PLGA microparticles. Lower amounts of drug encapsulation result in less inhibitor per microparticle. If the loading efficiency decreases below a certain threshold, the amount of microparticles required to deliver a therapeutic dose of the CDK9 inhibitor can become prohibitive (for cost, efficiency, injection volume, and potentially, an adverse reaction of the treated subject to the administered microparticles).

[2] = In vitro release of CDK9 inhibitor from microparticles in PBS-Tween; type: physicochemical; conditions: PLGA
Protocol: as §1
Flavopiridol release from the particles was quantified over 42 days in PBS-Tween®, by absorbance at 247 nm.
(B) Release: The release characteristics of the microparticles prepared above were determined using the procedure set forth in Example 2.

[3] = as above; type: physicochemical; conditions: PCL
[4] = test system: NFκB target genes; assay: Gene expression in primary human chondrocytes treated with IL-1β with or without flavopiridol; type: cell-based
Excerpt: CDK9 inhibition effectively suppresses the transcription of primary inflammatory response genes.
CDK9 inhibitors exert effects on the inflammatory response pathway.

[5] = test system: ACL-rupture in mice; assay: Primary response gene mRNA expression after ACL-rupture knee injury, systemic flavopiridol; type: in vivo

CCc1cnn2c(NCc3ccc[n+]([O-])c3)cc(N3CCCC[C@H]3CCO)nc12 [Dinaciclib]
incorporation of inhibitor (adequacy) [1]: not encapsulated effectively
incorporation of inhibitor (adequacy) ([1]; listed as dinaciclib): failed to incorporate an adequate amount

CC(C)(C)c1cnc(CSc2cnc(NC(=O)C3CCNCC3)s2)o1 [SNS-032]
% loading efficiency ([1]; PCL microparticles): 0.3%
% loading efficiency ([1]; PLGA microparticles): 30.7%
amount encapsulated in the PLGA microparticles ([1]; of the 2 g of starting SNS-032): about 0.61 g
% release ([2]; Day 1): 4.0%
% release ([2]; Day 3): 5.4%
% release ([2]; Day 5): 7.0%
% release ([3]; Day 3): 0%
% release ([3]; Day 7): 0%

CN1CC[C@H](c2c(O)cc(O)c3c(=O)cc(-c4ccccc4Cl)oc23)[C@H](O)C1 [flavopiridol, 2-(2-chlorophenyl)-5,7-dihydroxy-8-[(3S,4R)-3-hydroxy-1-methyl-4-piperidinyl]-4-chromenone]
average magnitude of repression (of maximum induction) of IL-1β-induced genes ([4]; 300 nM flavopiridol, 10 ng/mL IL-1β, 5 hours): > 86%
number of IL-1β-induced genes repressed by flavopiridol co-treatment ([4]; of 67 genes induced by IL-1β (84 NFκB target genes tested)): 59
repeated versus single administration (IL-1β, IL-6 gene expression) ([5]; 0, 1, or 2 administrations): more effective than a single administration
mRNA expression of pro-inflammatory cytokines IL-1β and IL-6 at the injured site ([5]; 4-8 hours post-injury, intraperitoneal injection): effectively and selectively suppressed
window after injury during which flavopiridol is effective at preventing transcription of primary response genes ([5]; delay before administration): at least 3 hours
house-keeping gene 18S rRNA, Collagen Type 2 and aggrecan expression ([5]; mouse, in vivo): not affected

Voruciclib
% loading efficiency ([1]; PCL microparticles): 1.1%
% loading efficiency ([1]; PLGA microparticles): 59.9%
% release ([2]; Day 1): 3.4%
% release ([2]; Day 3): 4.8%
% release ([2]; Day 5): 6.5%
% release ([3]; Day 3): 0.36%
% release ([3]; Day 7): 0.43%
